Results reported in patent US20230002327A1, “SMALL-MOLECULE REGULATOR OF TLR8” (TSINGHUA UNIVERSITY, priority 2019, published 2023).

What was measured:
TLR8 [1] = molecular target: T1, TLR8 (Homo sapiens, UniProt Q9NR97); assay: ORN06-induced signaling in HEK-Blue hTLR8 cell line; type: cell-based
T1 construct: host or cells: HEK-Blue hTLR8 (HEK293-derived SEAP reporter cells)
T1 sequence (Q9NR97 27-1041): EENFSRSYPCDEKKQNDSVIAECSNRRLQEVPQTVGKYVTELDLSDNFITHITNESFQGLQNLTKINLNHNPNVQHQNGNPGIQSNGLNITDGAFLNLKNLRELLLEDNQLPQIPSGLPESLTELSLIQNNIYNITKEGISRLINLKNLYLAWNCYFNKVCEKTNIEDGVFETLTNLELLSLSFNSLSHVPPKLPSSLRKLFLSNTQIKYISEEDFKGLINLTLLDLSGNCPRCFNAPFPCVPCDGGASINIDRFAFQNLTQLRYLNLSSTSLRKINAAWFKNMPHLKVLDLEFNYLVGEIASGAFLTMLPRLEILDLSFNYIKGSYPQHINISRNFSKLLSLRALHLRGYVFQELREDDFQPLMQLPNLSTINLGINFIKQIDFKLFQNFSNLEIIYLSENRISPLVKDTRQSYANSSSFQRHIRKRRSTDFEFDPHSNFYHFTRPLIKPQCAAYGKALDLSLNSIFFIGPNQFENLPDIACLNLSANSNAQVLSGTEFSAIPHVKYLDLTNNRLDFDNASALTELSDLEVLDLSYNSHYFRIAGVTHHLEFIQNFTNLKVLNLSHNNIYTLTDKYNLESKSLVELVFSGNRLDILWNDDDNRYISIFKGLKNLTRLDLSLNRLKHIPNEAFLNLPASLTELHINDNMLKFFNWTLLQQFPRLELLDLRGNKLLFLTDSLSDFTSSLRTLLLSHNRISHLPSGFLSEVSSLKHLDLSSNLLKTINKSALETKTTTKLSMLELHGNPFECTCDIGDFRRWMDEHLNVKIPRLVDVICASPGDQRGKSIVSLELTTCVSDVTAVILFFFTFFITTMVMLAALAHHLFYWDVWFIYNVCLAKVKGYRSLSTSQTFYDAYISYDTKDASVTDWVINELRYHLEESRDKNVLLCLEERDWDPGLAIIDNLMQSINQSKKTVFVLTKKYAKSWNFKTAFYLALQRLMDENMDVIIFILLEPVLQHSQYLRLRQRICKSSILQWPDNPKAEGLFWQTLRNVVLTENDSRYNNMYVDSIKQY
Method: HEK Blue hTLR8 cells or HEK Blue hTLR7 cells were cultured in DMEM medium supplemented with 10% fetal bovine serum, penicillin (100 U/mL) and streptomycin ([…]). Thereafter, cells were seeded in 96-well plate (45,000 cells per well), and were cultured for 24 hours in a humidified incubator (37° C., 5% CO2).
After 24 hours, the supernatant and suspending cells were aspirated and replaced with fresh serum-free DMEM. Cells were treated with 1 μg/mL of R848 (agonist of TLR7/8) or 5 μg/mL of ssRNA40/LyoVec or 5 μg/mL of ORN06/LyoVec (InvivoGen) and compounds with specified concentrations, and were placed in a humidified incubator (37° C., 5% CO2) for co-culture.
After 24 hours, 50 μL of the medium was aspirated from each well and then added to a new 96-well plate, followed by the addition of 50 μL of Quanti-Blue in each well and the incubation at 37° C. in darkness. Changes in color would occur in the […] within 60 minutes, and the absorbance was measured at 620 nm by using the multi-mode plate reader Vrioskan Flash. Inhibition rate (%)=[R848 (OD620)−Compound (OD620)]/[R848 (OD620)−Control (OD620)]×100%. Among these, the control group was only added with the same amount of cells. Finally, the software Prism 6.0 was utilized to plot a graph and calculate IC50 values. […]

HEK-Blue hTLR8 cell line = assay: Toxicity test of compounds (CCK-8 cell viability); type: cell-based, human; set-up: key to WST1 (normalized toxicity effect): viability relative to control well (background-subtracted OD), 1 = control
Method: In the 96-well plate used for the above-mentioned activity test of compounds (remaining 50 μL of culture medium containing cells), 5 μL of CellCountingKit-8 (CCK-8) Supermix was added to each well. Note that the introduction of air bubbles into the wells should be avoided since the air bubbles would interfere with the detection of OD value.
The culture plate was incubated in an incubator for 1 to 4 hours,
The edge of the 96-well plate could be tapped gently before reading the plate, and then the absorbance at 450 nm was measured by using the multi-mode plate reader.
Cell viability (%) was determined using the following formula: cell viability (%)=([Compound well ([…])−Background well (OD450)]/[Control well ([…])−Background well (OD450)])×100%. Among these, the background well was only added with the medium and CCK-8 reagent, the control well was only added with the medium, cells, R848 and CCK-8, and the compound wells were added with the medium, cells, R848, compounds in different concentrations, and CCK-8.

TLR8 [2] = molecular target: T1, TLR8; assay: Inhibition of R848-induced signaling in HEK-Blue hTLR8 cell line (Quanti-Blue); type: cell-based
In short: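 HEK-Blue hTLR8 cells, 45,000 per well, cultured 24 h then switched to serum-free DMEM; after a further 24 h, supernatant SEAP read with Quanti-Blue at 620 nm. Inhibition computed relative to R848 and untreated-cell OD620; IC50 from curve fit.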

TLR8 [3] = molecular target: T1, TLR8; assay: Specificity test in HEK-Blue TLR cell lines: TLR8; type: cell-based
Method: The selectivity of compounds for receptors in TLR family was tested in HEK-Blue cells overexpressing various TLRX (x=1 to 9) respectively. The steps of this test method were the same as those mentioned above in “Activity Test of Compounds”, except that the ligands corresponding to different TLRs were used to activate the downstream signaling in the corresponding cells. Among these, ploy (I:C) (20 μg/mL), LPS (40 ng/mL), Pam3CSK4 (100 ng/mL), Pam2CSK4 (100 ng/mL), flagellin (200 ng/mL), R848 (1 μg/mL) and ODN2006 (0.5 μM) were used to selectively activate HEK-Blue hTLR3-, hTLR4-, hTLR1/2-, hTLR2/6-, hTLR5-, hTLR7- and hTLR9-overexpressing cells, respectively.

[4] = HEK-Blue hTLR8 cell line (FIG. 1, FIG. 10)
[5] = HEK-Blue hTLR8 cell line, at a concentration of 100 μM (FIG. 12)

| SMILES | inhibitory effect on ORN06-induced signaling (TLR8 [1]; HEK-Blue hTLR8 cell line (FIG. 1)) | toxicity in HEK-Blue hTLR8 cell line (HEK-Blue hTLR8 cell line; even at a concentration of 100 μM (FIG. 2)) | inhibitory effect on R848-induced signaling (TLR8 [2]; [4]) | IC50 (TLR8 [2]; R848-induced signaling, HEK-Blue hTLR8 cell line, value ± standard deviation, at least triplicate) | specific inhibitory effect on HEK-Blue hTLR8 cell line (TLR8 [3]; at a concentration of 20 μM (FIG. 3)) | synergistic activating effect on ORN06-induced signaling (TLR8 [1]; [5]) | influence on cell viability (HEK-Blue hTLR8 cell line; HEK-Blue hTLR8 cells, under the test conditions (FIG. 10)) | WST1 (normalized toxicity effect) (HEK-Blue hTLR8 cell line; normalized cell viability, HEK-Blue cell lines) | inhibitory effect on R848-induced signaling (TLR8 [2]; [5]) | Remaining R848-induced TLR8 signaling (normalized activity; ligand+DMSO = 1, untreated = 0) (TLR8 [2]; HEK-Blue hTLR8 cell line, normalized, ligand+DMSO = 100% activity, untreated = 0%) | specific inhibitory effect on TLR8 signaling pathway (TLR8 [3]; at a concentration of 100 μM (FIG. 11)) |
| --- | --- | --- | --- | --- | --- | --- | --- | --- | --- | --- | --- |
| CSc1nnc(CCCO)n1-c1cc(C)c(C)c(C)c1 [Compound 24, 3-(5-(methylthio)-4-(3,4,5-trimethylphenyl)-4H-1,2,4-triazole-3-yl)propan-1-ol] | excellent inhibitory effect | did not cause significant toxicity | excellent inhibitory effect | 0.03 ± 0.002 µM | specific inhibitory effect | – | – | – | – | – | – |
| CCOCc1nc(I)c(-c2ccccc2)n1CC(C)(C)O [Compound 53, 1-[2-(ethoxymethyl)-4-iodo-5-phenyl-1H-imidazole-1-yl]-2-methylpropan-2-ol] | – | – | significant inhibitory effect | – | – | synergistic activating effect | no influence on cell viability | 0.9 ± 0.2 | significant inhibitory effect | 0.1 ± 0.1 | specific inhibitory effect |
